Assay results from patent US12637453B2, “Pyrazolopyridine inhibitors of c-Jun-n-Terminal kinases and uses thereof” (Dana-Farber Cancer Institute, Inc., priority 2019, dated 2026).

Assays:
Format in all cases: biochemical
JNK1 = JNK1 (Homo sapiens, UniProt P45983); assay: IC50 assay for JNK kinase inhibition, JNK1
JNK2 = JNK2 (Homo sapiens, UniProt P45984); assay: IC50 assay for JNK kinase inhibition, JNK2
JNK3 = JNK3 (Homo sapiens, UniProt P53779); assay: IC50 assay for JNK kinase inhibition, JNK3
JNK3, sequence (P53779 whole entry): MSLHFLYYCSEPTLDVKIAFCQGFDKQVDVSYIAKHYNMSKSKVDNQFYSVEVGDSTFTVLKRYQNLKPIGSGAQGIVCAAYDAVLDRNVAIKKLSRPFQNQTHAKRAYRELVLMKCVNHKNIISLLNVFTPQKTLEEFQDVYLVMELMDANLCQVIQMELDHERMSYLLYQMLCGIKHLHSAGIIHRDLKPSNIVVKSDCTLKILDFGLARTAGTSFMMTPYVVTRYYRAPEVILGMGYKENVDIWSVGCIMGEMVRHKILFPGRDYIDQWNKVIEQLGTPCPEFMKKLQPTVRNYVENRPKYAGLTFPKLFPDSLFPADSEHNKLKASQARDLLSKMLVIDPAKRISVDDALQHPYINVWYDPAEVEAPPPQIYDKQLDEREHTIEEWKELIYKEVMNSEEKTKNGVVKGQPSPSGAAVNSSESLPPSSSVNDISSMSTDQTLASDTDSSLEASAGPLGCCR

JNK2, sequence (P45984 whole entry): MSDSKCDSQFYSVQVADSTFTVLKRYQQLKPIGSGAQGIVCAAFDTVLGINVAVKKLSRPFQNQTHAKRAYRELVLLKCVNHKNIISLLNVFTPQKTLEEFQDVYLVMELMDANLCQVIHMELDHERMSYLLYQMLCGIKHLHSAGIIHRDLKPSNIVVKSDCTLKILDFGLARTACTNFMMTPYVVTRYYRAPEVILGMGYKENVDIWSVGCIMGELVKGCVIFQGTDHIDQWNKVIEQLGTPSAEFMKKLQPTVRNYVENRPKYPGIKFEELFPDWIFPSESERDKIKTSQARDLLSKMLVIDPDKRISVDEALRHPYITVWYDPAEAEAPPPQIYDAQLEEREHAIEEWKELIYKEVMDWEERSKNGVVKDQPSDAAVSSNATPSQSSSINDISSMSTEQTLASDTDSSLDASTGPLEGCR
JNK1, sequence (P45983 whole entry): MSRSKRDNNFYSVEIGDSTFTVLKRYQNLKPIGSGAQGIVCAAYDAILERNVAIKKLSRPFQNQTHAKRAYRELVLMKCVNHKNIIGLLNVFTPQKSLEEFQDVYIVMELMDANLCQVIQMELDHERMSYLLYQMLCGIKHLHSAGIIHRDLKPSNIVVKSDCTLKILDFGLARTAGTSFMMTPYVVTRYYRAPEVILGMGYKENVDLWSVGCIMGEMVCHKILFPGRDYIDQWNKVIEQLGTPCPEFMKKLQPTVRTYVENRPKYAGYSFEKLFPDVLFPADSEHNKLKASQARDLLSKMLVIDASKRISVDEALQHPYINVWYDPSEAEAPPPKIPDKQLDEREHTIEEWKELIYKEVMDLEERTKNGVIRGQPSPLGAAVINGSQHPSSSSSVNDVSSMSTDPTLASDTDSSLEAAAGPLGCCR

IC50 (JNK1)	IC50 (JNK2)	IC50 (JNK3)	Structure (SMILES)
44.7 nM	3.65 nM	2.36 nM	CN(C)C/C=C/C(=O)Nc1ccc(C(=O)N2CCC[C@H](Nc3nccc(-c4c(-c5ccccc5)nn5ccccc45)n3)C2)cc1 [I-1, (S,E)-4-(dimethylamino)-N-(4-(3-((4-(2-phenylpyrazolo[1,5-a]pyridin-3-yl)pyrimidin-2-yl)amino)piperidine-1-carbonyl)phenyl)but-2-enamide]
64 nM	11 nM	20 nM	CN(C)CCCC(=O)Nc1ccc(C(=O)N2CCC[C@H](Nc3nccc(-c4c(-c5ccccc5)nn5ccccc45)n3)C2)cc1 [I-2, (S)-4-(dimethylamino)-N-(4-(3-((4-(2-phenylpyrazolo[1,5-a]pyridin-3-yl)pyrimidin-2-yl)amino)piperidine-1-carbonyl)phenyl)butanamide]
26 nM	5.67 nM	16.2 nM	C=CC(=O)Nc1ccc(C(=O)N2CCC[C@H](Nc3nccc(-c4c(-c5ccccc5)nn5ccccc45)n3)C2)cc1 [I-3, (S)-N-(4-(3-((4-(2-phenylpyrazolo[1,5-a]pyridin-3-yl)pyrimidin-2-yl)amino)piperidine-1-carbonyl)phenyl)acrylamide]
21.4 nM	2.88 nM	22.5 nM	Nc1ccc(C(=O)N2CCC[C@H](Nc3nccc(-c4c(-c5ccccc5)nn5ccccc45)n3)C2)cc1 [I-4, (S)-(4-aminophenyl)(3-((4-(2-phenylpyrazolo[1,5-a]pyridin-3-yl)pyrimidin-2-yl)amino)piperidin-1-yl)methanone]
569 nM	24 nM	15 nM	CN(C)C/C=C/C(=O)Nc1ccc(C(=O)N2CCC[C@@H](Nc3nccc(-c4c(-c5ccccc5)nn5ccccc45)n3)C2)cc1 [I-5, (R,E)-4-(dimethylamino)-N-(4-(3-((4-(2-phenylpyrazolo[1,5-a]pyridin-3-yl)pyrimidin-2-yl)amino)piperidine-1-carbonyl)phenyl)but-2-enamide]
278 nM	40 nM	1090 nM	CN(C)CCCC(=O)Nc1ccc(C(=O)N2CCC[C@@H](Nc3nccc(-c4c(-c5ccccc5)nn5ccccc45)n3)C2)cc1 [I-6, (R)-4-(dimethylamino)-N-(4-(3-((4-(2-phenylpyrazolo[1,5-a]pyridin-3-yl)pyrimidin-2-yl)amino)piperidine-1-carbonyl)phenyl)butanamide]
12.5 nM	2.75 nM	25 nM	CN(C)C/C=C/C(=O)Nc1ccc(C(=O)N2CC[C@@H](Nc3nccc(-c4c(-c5ccccc5)nn5ccccc45)n3)C2)cc1 [I-7, (R,E)-4-(dimethylamino)-N-(4-(3-((4-(2-phenylpyrazolo[1,5-a]pyridin-3-yl)pyrimidin-2-yl)amino)pyrrolidine-1-carbonyl)phenyl)but-2-enamide]
73.4 nM	5.59 nM	21.4 nM	CN(C)CCCC(=O)Nc1ccc(C(=O)N2CC[C@@H](Nc3nccc(-c4c(-c5ccccc5)nn5ccccc45)n3)C2)cc1 [I-8, (R)-4-(dimethylamino)-N-(4-(3-((4-(2-phenylpyrazolo[1,5-a]pyridin-3-yl)pyrimidin-2-yl)amino)pyrrolidine-1-carbonyl)phenyl)butanamide]
403 nM	15.9 nM	96.1 nM	CN(C)C/C=C/C(=O)Nc1ccc(C(=O)N2CCCC[C@@H](Nc3nccc(-c4c(-c5ccccc5)nn5ccccc45)n3)C2)cc1 [I-9, (R,E)-4-(dimethylamino)-N-(4-(3-((4-(2-phenylpyrazolo[1,5-a]pyridin-3-yl)pyrimidin-2-yl)amino)azepane-1-carbonyl)phenyl)but-2-enamide]
243 nM	7.88 nM	48.1 nM	CN(C)CCCC(=O)Nc1ccc(C(=O)N2CCCC[C@@H](Nc3nccc(-c4c(-c5ccccc5)nn5ccccc45)n3)C2)cc1 [I-10, (R)-4-(dimethylamino)-N-(4-(3-((4-(2-phenylpyrazolo[1,5-a]pyridin-3-yl)pyrimidin-2-yl)amino)azepane-1-carbonyl)phenyl)butanamide]
152 nM	4.91 nM	51.4 nM	CN(C)C/C=C/C(=O)Nc1ccc(C(=O)N2CC[C@H](Nc3nccc(-c4c(-c5ccccc5)nn5ccccc45)n3)C2)cc1 [I-11, (S,E)-4-(dimethylamino)-N-(4-(3-((4-(2-phenylpyrazolo[1,5-a]pyridin-3-yl)pyrimidin-2-yl)amino)pyrrolidine-1-carbonyl)phenyl)but-2-enamide]
320 nM	17.6 nM	110 nM	CN(C)CCCC(=O)Nc1ccc(C(=O)N2CC[C@H](Nc3nccc(-c4c(-c5ccccc5)nn5ccccc45)n3)C2)cc1 [I-12, (S)-4-(dimethylamino)-N-(4-(3-((4-(2-phenylpyrazolo[1,5-a]pyridin-3-yl)pyrimidin-2-yl)amino)pyrrolidine-1-carbonyl)phenyl)butanamide]
308 nM	31 nM	20 nM	CN(C)C/C=C/C(=O)Nc1ccc(C(=O)N2CCCC[C@H](Nc3nccc(-c4c(-c5ccccc5)nn5ccccc45)n3)C2)cc1 [I-13, (S,E)-4-(dimethylamino)-N-(4-(3-((4-(2-phenylpyrazolo[1,5-a]pyridin-3-yl)pyrimidin-2-yl)amino)azepane-1-carbonyl)phenyl)but-2-enamide]
314 nM	29 nM	252 nM	CN(C)CCCC(=O)Nc1ccc(C(=O)N2CCCC[C@H](Nc3nccc(-c4c(-c5ccccc5)nn5ccccc45)n3)C2)cc1 [I-14, (S)-4-(dimethylamino)-N-(4-(3-((4-(2-phenylpyrazolo[1,5-a]pyridin-3-yl)pyrimidin-2-yl)amino)azepane-1-carbonyl)phenyl)butanamide]
481 nM	38.9 nM	40.3 nM	CN(C)C/C=C/C(=O)Nc1ccc(C(=O)NC2CCCC(Nc3nccc(-c4c(-c5ccccc5)nn5ccccc45)n3)C2)cc1 (stereo not drawn) [I-15, (E)-4-(4-(dimethylamino)but-2-enamido)-N-(3-((4-(2-phenylpyrazolo[1,5-a]pyridin-3-yl)pyrimidin-2-yl)amino)cyclohexyl)benzamide]
37.6 nM	6.94 nM	10.9 nM	CN(C)C/C=C/C(=O)Nc1cccc(C(=O)N2CC[C@H](Nc3nccc(-c4c(-c5ccccc5)nn5ccccc45)n3)C2)c1 [I-16, (S,E)-4-(dimethylamino)-N-(3-(3-((4-(2-phenylpyrazolo[1,5-a]pyridin-3-yl)pyrimidin-2-yl)amino)pyrrolidine-1-carbonyl)phenyl)but-2-enamide]
> 10000 nM	7890 nM	> 10000 nM	CN(C)C/C=C/C(=O)Nc1ccc(C(=O)N2CC3CC(Nc4nccc(-c5c(-c6ccccc6)nn6ccccc56)n4)C2C3)cc1 (stereo not drawn) [I-17, (E)-4-(dimethylamino)-N-(4-(6-((4-(2-phenylpyrazolo[1,5-a]pyridin-3-yl)pyrimidin-2-yl)amino)-2-azabicyclo[2.2.1]heptane-2-carbonyl)phenyl)but-2-enamide]
99.3 nM	12.4 nM	15.7 nM	CN(C)C/C=C/C(=O)Nc1ccc(NC(=O)N2CC[C@H](Nc3nccc(-c4c(-c5ccccc5)nn5ccccc45)n3)C2)cc1 [I-18, (S,E)-N-(4-(4-(dimethylamino)but-2-enamido)phenyl)-3-((4-(2-phenylpyrazolo[1,5-a]pyridin-3-yl)pyrimidin-2-yl)amino)pyrrolidine-1-carboxamide]
168 nM	10 nM	12 nM	CN(C)C/C=C/C(=O)Nc1ccc2c(N3CC[C@H](Nc4nccc(-c5c(-c6ccccc6)nn6ccccc56)n4)C3)nccc2c1 [I-20, (S,E)-4-(dimethylamino)-N-(1-(3-((4-(2-phenylpyrazolo[1,5-a]pyridin-3-yl)pyrimidin-2-yl)amino)pyrrolidin-1-yl)isoquinolin-6-yl)but-2-enamide]
3360 nM	585 nM	359 nM	CN(C)C/C=C/C(=O)Nc1ccc(C(=O)N2CC[C@H](Nc3ncc(Cl)c(-c4c(-c5ccccc5)nn5ccccc45)n3)C2)cc1 [I-21, (S,E)-N-(4-(3-((5-chloro-4-(2-phenylpyrazolo[1,5-a]pyridin-3-yl)pyrimidin-2-yl)amino)pyrrolidine-1-carbonyl)phenyl)-4-(dimethylamino)but-2-enamide]
85 nM	5.57 nM	3.87 nM	CN(C)C/C=C/C(=O)Nc1ccc(C(=O)N2CC[C@H](Nc3nccc(-c4c(-c5ccc(F)cc5)nn5ccccc45)n3)C2)cc1 [I-22, (S,E)-4-(dimethylamino)-N-(4-(3-((4-(2-(4-fluorophenyl)pyrazolo[1,5-a]pyridin-3-yl)pyrimidin-2-yl)amino)pyrrolidine-1-carbonyl)phenyl)but-2-enamide]
1140 nM	142 nM	396 nM	Cc1cccn2nc(-c3ccccc3)c(-c3ccnc(N[C@H]4CCN(C(=O)c5ccc(NC(=O)/C=C/CN(C)C)cc5)C4)n3)c12 [I-23, (S,E)-4-(dimethylamino)-N-(4-(3-((4-(4-methyl-2-phenylpyrazolo[1,5-a]pyridin-3-yl)pyrimidin-2-yl)amino)pyrrolidine-1-carbonyl)phenyl)but-2-enamide]
18.4 nM	0.952 nM	5.53 nM	Cc1ccc2c(-c3ccnc(N[C@H]4CCN(C(=O)c5ccc(NC(=O)/C=C/CN(C)C)cc5)C4)n3)c(-c3ccccc3)nn2c1 [I-24, (S,E)-4-(dimethylamino)-N-(4-(3-((4-(6-methyl-2-phenylpyrazolo[1,5-a]pyridin-3-yl)pyrimidin-2-yl)amino)pyrrolidine-1-carbonyl)phenyl)but-2-enamide]
90.7 nM	3.92 nM	18.3 nM	CN(C)C/C=C/C(=O)Nc1ccc(C(=O)N2CC[C@H](Nc3nccc(-c4c(-c5cccc(Cl)c5)nn5ccccc45)n3)C2)cc1 [I-25, (S,E)-N-(4-(3-((4-(2-(3-chlorophenyl)pyrazolo[1,5-a]pyridin-3-yl)pyrimidin-2-yl)amino)pyrrolidine-1-carbonyl)phenyl)-4-(dimethylamino)but-2-enamide]
